Measured values reported in the supplement of paper PMC10307832.

Experiments:
Assay in all cases: relative viability (nuclei count vs DMSO), 5 days (fraction); higher = more cells survive
IU1-47 + Navitoclax = compound: CC1=CC(=C(N1C2=CC=C(C=C2)Cl)C)C(=O)CN3CCCCC3 [IU1-47] + CC1(C)CCC(c2ccc(Cl)cc2)=C(CN2CCN(c3ccc(C(=O)NS(=O)(=O)c4ccc(N[C@H](CCN5CCOCC5)CSc5ccccc5)c(S(=O)(=O)C(F)(F)F)c4)cc3)CC2)C1 [Navitoclax] (partner 0.5 µM)
Summary of the method: (§1)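 After 5 days of treatment, lung cancer cells in 1536-well plates were fixed and stained in a single step (final 0.05% Triton X-100, 1% formaldehyde, 1 ug/ml Hoechst) and their nuclei counted on 4× images. Treatment had been applied by pin tool the day after seeding as one drug alone or as a fixed anchor-drug dose with five library-drug doses (not always all listed) in √10 steps. Relative viability is the nuclei count of treated wells divided by that of vehicle wells, and values are medians of duplicate plates.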

FG-4592 = compound: Cc1nc(C(=O)NCC(=O)O)c(O)c2ccc(Oc3ccccc3)cc12 [FG-4592]
Summary of the method: (§2)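 A plate was accepted only when its control CV was below 25% and the cells had doubled at least once. Viability is defined from nuclear counts as treated wells divided by vehicle wells, with the median taken across plates. That median covers lung cancer cell lines grown in 1536-well plates, dosed by pinning at five √10-spaced library-drug concentrations, and counted in MetaXpress from 4× Hoechst images after 5 days.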

IU1-47 = compound: CC1=CC(=C(N1C2=CC=C(C=C2)Cl)C)C(=O)CN3CCCCC3 [IU1-47]
Summary of the method: as §2

IU1-47 + Foretinib = compound: CC1=CC(=C(N1C2=CC=C(C=C2)Cl)C)C(=O)CN3CCCCC3 [IU1-47] + COc1cc2c(Oc3ccc(NC(=O)C4(C(=O)Nc5ccc(F)cc5)CC4)cc3F)ccnc2cc1OCCCN1CCOCC1 [Foretinib] (partner 0.25 µM)
Summary of the method: as §1

Cell Line | relative viability (IU1-47 + Navitoclax; first compound 0.08 µM) | relative viability (IU1-47 + Navitoclax; first compound 0.253 µM) | relative viability (IU1-47 + Navitoclax; first compound 0.8 µM) | relative viability (IU1-47 + Navitoclax; first compound 2.53 µM) | relative viability (IU1-47 + Navitoclax; first compound 8 µM) | relative viability (FG-4592; 0.08 µM) | relative viability (FG-4592; 0.253 µM) | relative viability (FG-4592; 0.8 µM) | relative viability (FG-4592; 2.53 µM) | relative viability (FG-4592; 8 µM) | relative viability (IU1-47; 0.08 µM) | relative viability (IU1-47; 0.253 µM) | relative viability (IU1-47; 0.8 µM) | relative viability (IU1-47; 2.53 µM) | relative viability (IU1-47; 8 µM) | relative viability (IU1-47 + Foretinib; first compound 0.08 µM) | relative viability (IU1-47 + Foretinib; first compound 0.253 µM) | relative viability (IU1-47 + Foretinib; first compound 0.8 µM) | relative viability (IU1-47 + Foretinib; first compound 2.53 µM) | relative viability (IU1-47 + Foretinib; first compound 8 µM)
HCC-44 | 1.14 | 1.01 | 1 | 0.908 | 0.956 | 1.01 | 0.939 | 0.806 | 1.05 | 1.04 | 0.964 | 1.03 | 1.03 | 0.945 | 1.02 |  |  |  |  | 
HCC-827 | 1.06 | 1.08 | 1.01 | 1.02 | 0.995 | 1.03 | 0.988 | 1.02 | 1.02 | 1.03 | 1.09 | 1.05 | 1.05 | 1.08 | 1.09 | 1.15 | 1.12 | 0.998 | 1.02 | 1.01
NCI-H1623 |  |  |  |  |  | 0.964 | 0.824 | 0.858 | 1.05 | 0.769 | 1.04 | 0.981 | 0.974 | 0.812 | 0.882 | 1.05 | 0.903 | 0.892 | 0.841 | 0.833
NCI-H2347 | 0.964 | 0.888 | 0.912 | 0.874 | 0.802 | 0.873 | 0.738 | 0.955 | 0.936 | 1.05 | 1.11 | 1.02 | 1.04 | 0.828 | 1.01 | 0.707 | 0.605 | 0.843 | 1.17 | 1.1
PC-14 | 1.22 | 1.14 | 1.16 | 1.06 | 0.932 | 1.07 | 0.927 | 0.99 | 0.982 | 0.97 | 1.04 | 1.05 | 1.09 | 0.84 | 0.933 | 1.07 | 1.03 | 0.954 | 0.959 | 0.907
NCI-H1651 | 1.25 | 1.13 | 1.16 |  | 1.12 | 0.973 | 0.941 | 0.921 | 0.961 | 0.915 | 0.978 | 0.995 | 1.01 | 0.918 | 0.983 | 0.946 | 0.869 | 0.903 | 0.787 | 0.973
HARA | 1.16 | 1.19 | 1.19 | 1.2 | 0.998 | 0.782 | 0.752 | 0.822 | 1.01 | 1.13 | 0.964 | 0.935 | 1.09 | 0.68 | 0.817 | 1.02 | 1.1 | 1.04 |  | 0.742
NCI-H1563 |  |  |  |  |  | 0.946 | 0.958 | 0.922 | 0.988 | 0.888 | 0.985 | 0.983 | 1.12 | 0.944 | 1.05 | 0.855 | 0.988 | 0.967 | 0.886 | 0.864
ABC-1 |  |  |  |  |  | 0.814 | 0.824 | 0.924 | 0.949 | 0.77 | 1.03 | 1.01 | 0.888 |  | 0.876 | 1.1 | 0.985 | 1.06 |  | 1.07
SW 900 |  |  |  |  |  | 0.699 | 0.954 | 0.514 | 0.913 | 1.13 | 0.771 | 0.589 | 0.82 | 0.68 | 0.742 | 1.24 | 0.849 | 0.852 | 1.18 | 0.734
NCI-H1648 |  |  |  |  |  | 0.798 | 0.926 | 0.907 | 0.83 | 1.28 | 0.947 | 1.17 | 1.17 | 0.557 | 0.552 |  |  |  |  | 
NCI-H1792 | 0.65 | 0.725 | 0.76 | 0.678 | 0.251 | 0.763 | 0.725 | 0.693 | 0.861 | 0.868 | 0.847 | 0.796 | 0.889 | 0.862 | 0.486 |  |  |  |  | 
LCLC-103H |  |  |  |  |  | 0.955 | 0.971 | 0.807 | 0.865 | 0.938 | 1.03 | 1.1 | 0.871 | 0.976 | 0.933 | 0.786 | 0.864 | 0.846 | 0.73 | 0.865
NCI-H358 |  |  |  |  |  | 1.02 | 0.835 | 1.16 | 0.896 | 0.989 | 1 | 0.912 | 0.981 | 0.89 | 0.848 | 0.828 | 0.628 | 0.863 | 0.652 | 0.658
NCI-H2342 |  |  |  |  |  | 0.985 | 0.97 | 0.839 | 0.812 | 0.82 | 1.03 | 1.03 | 1.28 | 1.15 | 0.985 | 1.24 | 1.06 | 0.935 | 1.07 | 1.03
NCI-H522 |  |  |  |  |  | 0.958 | 0.947 | 0.761 | 0.992 | 0.823 | 0.959 | 0.975 | 1.01 | 0.82 | 0.874 |  |  |  |  | 
NCI-H650 |  |  |  |  |  | 0.836 | 0.964 | 0.737 | 0.912 | 0.891 | 1.15 | 1.08 | 0.978 | 0.836 | 0.876 | 1.06 | 1.01 | 1.02 | 0.881 | 1.07
NCI-H661 |  |  |  |  |  | 0.926 | 0.942 | 1.11 | 0.903 | 0.972 | 1.09 | 1.07 | 1.12 | 0.929 | 1.07 | 1.14 | 1.16 | 1.07 | 0.93 | 1.2
